Laboratory results taken from patent US12441718B2, “Selective angiotensin II compounds” (VICORE PHARMA AB, priority 2021, dated 2025).
Where two headings read alike, the source gives them in different places.

Assays:
[1] = Metabolic stability in pooled human liver microsomes; format: in vitro ADME; settings: human, pooled human liver microsomes, pooled human liver microsomes 0.5 mg/mL, 1 μM test compound, 37° C., * rows = mean of two runs
In short: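 Pooled human liver microsomes (0.5 mg/mL in PBS) preincubated ±1 mM NADPH at 37° C; test compound added at 10 min to 1 μM final. Samples at 0, 5, 15 and 60 min quenched in acetonitrile, parent quantified by LC-MS/MS against a standard curve (terfenadine internal standard). Initial metabolic rate calculated with and without NADPH.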

[2] = target: T1, human recombinant AT2 receptor (Homo sapiens, UniProt P50052); assay: Binding to AT2 receptor, radiometric scintillation assay (Eurofins ITEM26); settings: ligand 125I CGP 42112A, * rows = mean of runs; for Ki: seven-point dose-response curve; for IC50: test compounds at 1, 10, 100 and 1000 nM, read-out: AT2 GraFit IC50
T1 construct: purchased Eurofins ITEM26 (protocol number)
T1 sequence (P50052 1-363): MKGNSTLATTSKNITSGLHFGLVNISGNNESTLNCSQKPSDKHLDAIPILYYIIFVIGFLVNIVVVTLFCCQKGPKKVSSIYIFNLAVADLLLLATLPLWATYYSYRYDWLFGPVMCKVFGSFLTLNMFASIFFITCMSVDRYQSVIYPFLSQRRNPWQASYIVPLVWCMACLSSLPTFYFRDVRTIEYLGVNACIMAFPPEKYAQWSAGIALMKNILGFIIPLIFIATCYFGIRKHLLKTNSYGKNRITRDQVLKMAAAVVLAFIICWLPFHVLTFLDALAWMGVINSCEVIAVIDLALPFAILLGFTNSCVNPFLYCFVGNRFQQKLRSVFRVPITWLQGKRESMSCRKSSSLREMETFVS

[3] = target: T2, human recombinant AT1 receptor (Homo sapiens, UniProt P30556); assay: Binding to AT1 receptor, radiometric scintillation assay (Eurofins ITEM24); settings: test compounds at 1 and 10 μM, ligand 125I(sar1,Ile8)-AT-II; * rows = mean of runs
T2 construct: purchased Eurofins ITEM24 (protocol number)
T2 sequence (P30556 1-359): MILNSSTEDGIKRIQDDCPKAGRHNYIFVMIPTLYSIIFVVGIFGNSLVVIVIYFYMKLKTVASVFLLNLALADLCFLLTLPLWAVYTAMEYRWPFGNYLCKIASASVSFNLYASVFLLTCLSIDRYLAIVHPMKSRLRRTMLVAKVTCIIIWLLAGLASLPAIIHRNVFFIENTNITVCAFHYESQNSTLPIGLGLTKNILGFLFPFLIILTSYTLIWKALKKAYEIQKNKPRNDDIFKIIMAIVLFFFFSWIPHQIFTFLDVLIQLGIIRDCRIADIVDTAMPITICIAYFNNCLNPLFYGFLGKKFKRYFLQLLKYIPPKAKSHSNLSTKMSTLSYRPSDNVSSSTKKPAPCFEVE

CYP1A2 = target: T3, CYP1A2 (Homo sapiens, UniProt P05177); assay: in vitro; format: in vitro ADME; settings: human, microsomes, human liver microsomes, substrate phenacetin, read-out: CYP1A2 Inh %
T3 construct: isoform-specific substrates incubated with human liver microsomes; tissue Eurofins ITEMG232 (protocol number); host or cells: human liver microsomes
T3 sequence (P05177 whole entry, canonical isoform): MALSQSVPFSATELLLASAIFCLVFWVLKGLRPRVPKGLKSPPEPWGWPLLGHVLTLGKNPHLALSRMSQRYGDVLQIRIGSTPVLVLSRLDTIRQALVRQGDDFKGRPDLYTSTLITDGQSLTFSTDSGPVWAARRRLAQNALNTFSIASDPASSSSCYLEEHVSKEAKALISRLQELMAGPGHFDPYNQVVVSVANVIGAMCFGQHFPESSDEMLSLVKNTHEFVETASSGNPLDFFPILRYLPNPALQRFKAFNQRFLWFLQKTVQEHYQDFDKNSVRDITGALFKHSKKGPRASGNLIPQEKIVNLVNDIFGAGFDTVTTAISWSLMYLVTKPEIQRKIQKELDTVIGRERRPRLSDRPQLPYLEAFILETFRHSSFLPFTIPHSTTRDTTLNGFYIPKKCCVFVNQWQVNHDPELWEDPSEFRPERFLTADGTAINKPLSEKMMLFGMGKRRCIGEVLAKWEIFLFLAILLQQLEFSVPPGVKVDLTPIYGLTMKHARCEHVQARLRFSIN
Procedure: The following substrates were used; CYP1A phenacetin, CYP2B36 bupropion, CYP2C8 paclitaxel and amodiaquine, CYP2C9 diclofenac, CYP2C19 omeprazole, CYP2D6 dextromethorphan, CYP3A midazolam and testosterone.
At the end of the incubation, the formation of metabolite was monitored by HPLC-MS/MS as the peak area response.

CYP2B6 = target: T4, CYP2B6 (Homo sapiens, UniProt P20813); assay: CYP inhibition in human liver microsomes (Eurofins ITEMG232); format: in vitro ADME; settings: probe bupropion, substrate bupropion, read-out: CYP2B6 Inh %
T4 construct: isoform-specific substrates incubated with human liver microsomes; tissue Eurofins ITEMG232 (protocol number); host or cells: human liver microsomes
T4 sequence (P20813 1-491): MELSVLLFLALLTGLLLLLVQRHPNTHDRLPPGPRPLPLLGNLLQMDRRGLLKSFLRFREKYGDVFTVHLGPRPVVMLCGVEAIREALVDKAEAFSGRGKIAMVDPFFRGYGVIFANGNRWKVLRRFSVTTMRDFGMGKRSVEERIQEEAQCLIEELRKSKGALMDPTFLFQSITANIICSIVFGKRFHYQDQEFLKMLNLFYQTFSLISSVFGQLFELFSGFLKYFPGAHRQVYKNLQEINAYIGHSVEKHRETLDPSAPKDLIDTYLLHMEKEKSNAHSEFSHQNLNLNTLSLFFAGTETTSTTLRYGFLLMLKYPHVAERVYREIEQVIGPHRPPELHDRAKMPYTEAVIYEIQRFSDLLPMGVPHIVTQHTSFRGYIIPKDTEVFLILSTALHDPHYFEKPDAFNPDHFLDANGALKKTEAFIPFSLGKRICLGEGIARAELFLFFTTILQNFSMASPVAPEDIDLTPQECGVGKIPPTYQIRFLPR

CYP2C19 = target: T5, CYP2C19 (Homo sapiens, UniProt P33261); assay: as above; format: in vitro ADME; settings: human, probe omeprazole, substrate omeprazole, read-out: CYP2C19 Inh %
T5 construct: isoform-specific substrates incubated with human liver microsomes; tissue Eurofins ITEMG232 (protocol number); host or cells: human liver microsomes
T5 sequence (P33261 whole entry, canonical isoform): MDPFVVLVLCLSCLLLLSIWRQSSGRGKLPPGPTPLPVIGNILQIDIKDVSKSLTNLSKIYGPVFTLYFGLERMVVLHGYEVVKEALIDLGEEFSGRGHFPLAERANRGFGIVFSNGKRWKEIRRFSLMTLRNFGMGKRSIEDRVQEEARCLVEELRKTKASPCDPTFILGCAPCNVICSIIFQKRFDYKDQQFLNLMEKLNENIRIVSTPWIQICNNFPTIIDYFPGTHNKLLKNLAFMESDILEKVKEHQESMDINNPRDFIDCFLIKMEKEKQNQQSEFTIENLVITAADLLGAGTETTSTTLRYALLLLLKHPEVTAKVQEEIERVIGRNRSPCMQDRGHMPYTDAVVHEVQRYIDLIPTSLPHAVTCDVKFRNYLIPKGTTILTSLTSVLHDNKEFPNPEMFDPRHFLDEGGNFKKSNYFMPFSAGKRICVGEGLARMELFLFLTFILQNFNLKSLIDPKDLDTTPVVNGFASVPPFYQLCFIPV

CYP2C8 = target: T6, CYP2C8 (Homo sapiens, UniProt P10632); assay: as above; format: in vitro ADME; settings: human, probe paclitaxel and amodiaquine, substrate paclitaxel and amodiaquine, read-out: CYP2C8 Inh %
T6 construct: isoform-specific substrates incubated with human liver microsomes; tissue Eurofins ITEMG232 (protocol number); host or cells: human liver microsomes
T6 sequence (P10632 1-490): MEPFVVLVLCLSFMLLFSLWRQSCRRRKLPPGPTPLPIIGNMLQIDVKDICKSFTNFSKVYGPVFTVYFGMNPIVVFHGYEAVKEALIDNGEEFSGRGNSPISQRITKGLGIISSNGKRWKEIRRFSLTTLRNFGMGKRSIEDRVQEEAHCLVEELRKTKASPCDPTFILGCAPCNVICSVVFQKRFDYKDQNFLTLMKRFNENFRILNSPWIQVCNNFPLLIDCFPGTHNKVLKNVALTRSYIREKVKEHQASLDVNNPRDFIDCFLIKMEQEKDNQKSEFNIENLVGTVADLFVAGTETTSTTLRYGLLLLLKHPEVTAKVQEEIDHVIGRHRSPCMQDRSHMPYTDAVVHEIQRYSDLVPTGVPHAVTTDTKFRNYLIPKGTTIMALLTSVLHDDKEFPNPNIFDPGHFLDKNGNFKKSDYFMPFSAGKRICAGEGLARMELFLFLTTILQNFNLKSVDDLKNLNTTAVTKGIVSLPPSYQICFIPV

CYP2D6 = target: T7, CYP2D6 (Homo sapiens, UniProt P10635); assay: as above; format: in vitro ADME; settings: probe dextromethorphan, substrate dextromethorphan, read-out: CYP2D6 Inh %
T7 construct: isoform-specific substrates incubated with human liver microsomes; tissue Eurofins ITEMG232 (protocol number); host or cells: human liver microsomes
T7 sequence (P10635 whole entry, canonical isoform): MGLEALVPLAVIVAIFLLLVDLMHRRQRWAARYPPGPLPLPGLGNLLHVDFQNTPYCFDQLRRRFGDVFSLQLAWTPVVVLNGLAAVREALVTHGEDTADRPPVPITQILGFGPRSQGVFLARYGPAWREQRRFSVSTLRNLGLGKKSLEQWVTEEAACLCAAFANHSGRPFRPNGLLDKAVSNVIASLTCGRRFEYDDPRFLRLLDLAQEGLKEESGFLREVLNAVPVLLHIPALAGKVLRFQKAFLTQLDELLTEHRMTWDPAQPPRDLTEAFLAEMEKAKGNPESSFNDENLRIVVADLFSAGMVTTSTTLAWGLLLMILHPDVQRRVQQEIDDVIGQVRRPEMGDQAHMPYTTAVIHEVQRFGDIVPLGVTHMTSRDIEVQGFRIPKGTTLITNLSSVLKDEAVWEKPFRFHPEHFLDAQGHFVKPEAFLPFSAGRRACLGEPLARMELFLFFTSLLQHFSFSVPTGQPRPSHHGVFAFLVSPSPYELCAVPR

CYP3A4&5 = assay: in vitro; settings: human, human liver microsomes, probe testosterone;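 note: Read-out is the metabolite generated from the probe substrate, quantified as HPLC-MS/MS peak area once incubation ends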
CYP2C9 = CYP2C9 (Homo sapiens, UniProt P11712); assay: CYP inhibition in human liver microsomes (Eurofins ITEMG232); format: in vitro ADME; parameters: isoform-specific substrates incubated with human liver microsomes; tissue Eurofins ITEMG232 (protocol number); host or cells: human liver microsomes; settings: human, probe diclofenac, substrate diclofenac, read-out: CYP2C9 Inh %
CYP2C9, sequence (P11712 whole entry, canonical isoform): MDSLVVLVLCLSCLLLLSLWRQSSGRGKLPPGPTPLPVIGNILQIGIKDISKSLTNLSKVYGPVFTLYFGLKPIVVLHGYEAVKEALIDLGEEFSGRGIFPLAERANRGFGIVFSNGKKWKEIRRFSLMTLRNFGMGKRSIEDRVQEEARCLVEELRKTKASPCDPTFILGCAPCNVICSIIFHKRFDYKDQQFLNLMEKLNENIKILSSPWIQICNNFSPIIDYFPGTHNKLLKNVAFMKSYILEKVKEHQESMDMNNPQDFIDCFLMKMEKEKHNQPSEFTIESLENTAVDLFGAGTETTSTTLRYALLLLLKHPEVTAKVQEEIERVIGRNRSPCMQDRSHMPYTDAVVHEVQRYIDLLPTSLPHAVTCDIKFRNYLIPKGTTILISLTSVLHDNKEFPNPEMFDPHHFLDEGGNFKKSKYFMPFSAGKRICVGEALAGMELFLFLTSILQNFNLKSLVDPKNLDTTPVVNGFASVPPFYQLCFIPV

CYP3A4 = CYP3A4 (Homo sapiens, UniProt P08684); assay: CYP inhibition in human liver microsomes (Eurofins ITEMG232), midazolam substrate; format: in vitro ADME; parameters: isoform-specific substrates incubated with human liver microsomes; tissue Eurofins ITEMG232 (protocol number); host or cells: human liver microsomes; settings: human, probe midazolam, read-out: CYP3A4 midazolam Inh %
CYP3A4, sequence (P08684 whole entry, canonical isoform): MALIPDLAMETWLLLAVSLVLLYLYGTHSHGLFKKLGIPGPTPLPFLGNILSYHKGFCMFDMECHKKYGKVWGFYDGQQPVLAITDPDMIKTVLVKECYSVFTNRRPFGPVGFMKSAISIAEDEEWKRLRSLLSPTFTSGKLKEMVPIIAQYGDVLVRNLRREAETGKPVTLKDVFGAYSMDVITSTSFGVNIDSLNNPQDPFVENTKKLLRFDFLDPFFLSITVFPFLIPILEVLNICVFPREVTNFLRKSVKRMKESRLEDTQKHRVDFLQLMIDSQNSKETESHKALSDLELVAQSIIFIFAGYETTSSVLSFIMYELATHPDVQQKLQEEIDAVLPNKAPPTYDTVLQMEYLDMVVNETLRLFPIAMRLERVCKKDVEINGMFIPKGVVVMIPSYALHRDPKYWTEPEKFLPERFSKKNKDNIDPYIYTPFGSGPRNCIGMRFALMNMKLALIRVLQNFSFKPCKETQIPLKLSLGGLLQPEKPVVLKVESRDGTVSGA

[4] = with 1 mM NADPH, read-out: T1/2, + NaDPH
[5] = without NADPH, read-out: T1/2, no NaDPH

half-life at 1 μM [1, 4] [h]	half-life at 1 μM [1, 5] [h]	Ki [2] [nM]	IC50 [2] [nM]	IC50 [3] [nM]	inhibition at 10 µM (CYP1A2) [%]	inhibition at 10 µM (CYP2B6) [%]	inhibition at 10 µM (CYP2C19) [%]	inhibition at 10 µM (CYP2C8) [%]	inhibition at 10 µM (CYP2D6) [%]	inhibition at 10 µM (CYP3A4&5) [%]	inhibition at 10 µM (CYP2C9) [%]	inhibition at 10 µM (CYP3A4) [%]	Structure (SMILES)
0.667	> 1	3.75	7.5	22700	10.7	12.5	48	40.9	20.1	28.1	69	47.5	Cc1cnc(NS(=O)(=O)c2ccc(CC(C)C)cc2-c2ccc(Cn3ccnc3C(C)(C)C)cc2)nc1 [Example 20, 4′-((2-(tert-Butyl)-1H-imidazol-1-yl)methyl)-5-isobutyl-N-(5-methylpyrimidin-2-yl)-[1,1′-biphenyl]-2-sulfonamide]
1	> 1	0.5	1.01	125	60.2	38.4	95.7	62.4	50.9	92.2	98	94	CC(C)Cc1ccc(S(=O)(=O)Nc2ncccn2)c(-c2ccc(Cn3ccnc3)c(F)c2)c1 [Example 30, 4′-((1H-Imidazol-1-yl)methyl)-3′-fluoro-5-isobutyl-N-(pyrimidin-2-yl)-[1,1′-biphenyl]-2-sulfonamide]
> 1	> 1	6.18	12.4	6200	19.5	36.2	62.3	94.3	21.5	1.5	68.3	33.8	CC(C)Cc1ccc(S(=O)(=O)Nc2ncc(C(F)(F)F)cn2)c(-c2ccc(Cn3ccnc3C(C)(C)C)cc2)c1 [Example 4, 4′-((2-(tert-Butyl)-1H-imidazol-1-yl)methyl)-5-isobutyl-N-(5-(trifluoromethyl)pyrimidin-2-yl)-[1,1′-biphenyl]-2-sulfonamide]
0.55	> 1	0.72	1.45	1100	-19.4	26.9	57	59.6	1.1	47.5	52.7	36	Cc1nc(NS(=O)(=O)c2ccc(CC(C)C)cc2-c2ccc(Cn3ccnc3C(C)(C)C)c(F)c2)oc1C [Example 24, 4′-((2-(tert-Butyl)-1H-imidazol-1-yl)methyl)-N-(4,5-dimethyloxazol-2-yl)-3′-fluoro-5-isobutyl-[1,1′-biphenyl]-2-sulfonamide]
0.967	> 1	2.08	4.17	1700	16.7	35.8	48.9	89.6	18.4	-41.8	82.3	14.6	CC(C)Cc1ccc(S(=O)(=O)Nc2ncc(C#N)cn2)c(-c2ccc(Cn3ccnc3C(C)(C)C)c(F)c2)c1 [Example 12, 4′-((2-(tert-Butyl)-1H-imidazol-1-yl)methyl)-N-(5-cyanopyrimidin-2-yl)-3′-fluoro-5-isobutyl-[1,1′-biphenyl]-2-sulfonamide]
> 1	> 1	2.05	4.11	5200	48.6	30.4	35.8	91.6	16.4	-14.9	73.1	7.7	CC(C)Cc1ccc(S(=O)(=O)Nc2ncc(F)cn2)c(-c2ccc(Cn3ccnc3C(C)(C)C)c(F)c2)c1 [Example 9, 4′-((2-(tert-Butyl)-1H-imidazol-1-yl)methyl)-3′-fluoro-N-(5-fluoropyrimidin-2-yl)-5-isobutyl-[1,1′-biphenyl]-2-sulfonamide]
0.9	> 1	1.27	2.54	15000	45.9	38.9	41	78	15	3.7	41.3	-12.5	CC(C)Cc1ccc(S(=O)(=O)Nc2ncccn2)c(-c2ccc(Cn3ccnc3C(C)(C)C)c(F)c2)c1 [Example 7, 4′-((2-(tert-Butyl)-1H-imidazol-1-yl)methyl)-3′-fluoro-5-isobutyl-N-(pyrimidin-2-yl)-[1,1′-biphenyl]-2-sulfonamide]
